Experiment in all cases: TGFα-shedding assay-based GPCR screening with chimeric Gα subunit proteins
Format in all cases: cell-based

Assay [1] addresses T1, 348 GPCRs (Homo sapiens, UniProt P25024).
T1 construct: expressed in transfected cells; host or cells: HEK293A
T1 sequence (P25024 1-350): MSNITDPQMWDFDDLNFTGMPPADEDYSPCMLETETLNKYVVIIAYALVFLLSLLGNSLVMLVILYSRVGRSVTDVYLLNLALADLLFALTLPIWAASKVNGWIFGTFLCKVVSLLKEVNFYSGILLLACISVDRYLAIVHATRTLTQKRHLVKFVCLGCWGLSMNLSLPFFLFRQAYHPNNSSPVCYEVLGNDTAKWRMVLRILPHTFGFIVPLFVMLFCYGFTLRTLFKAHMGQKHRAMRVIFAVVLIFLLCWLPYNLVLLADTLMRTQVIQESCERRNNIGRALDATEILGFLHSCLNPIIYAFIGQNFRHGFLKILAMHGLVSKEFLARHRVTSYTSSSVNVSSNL

Assay [2] has as its target T2, 348 GPCRs (Homo sapiens, UniProt Q8NGU9).
T2 construct: expressed in transfected cells; host or cells: HEK293A
The note with it: 10µM, Favipiravir 100μM.

For assay [3], the target named is T3, 348 GPCRs (Homo sapiens, UniProt Q15760).
T3 construct: expressed in transfected cells; host or cells: HEK293A
The note with it: 10µM, Favipiravir 100μM.

Assay [4] concerns the target T4, 348 GPCRs (Homo sapiens, UniProt Q14416).
T4 construct: expressed in transfected cells; host or cells: HEK293A
The note with it: 10µM, Favipiravir 100μM.

In assay [5] the target is T5, 348 GPCRs (Homo sapiens, UniProt O00421).
T5 construct: expressed in transfected cells; host or cells: HEK293A
T5 sequence (O00421 1-344): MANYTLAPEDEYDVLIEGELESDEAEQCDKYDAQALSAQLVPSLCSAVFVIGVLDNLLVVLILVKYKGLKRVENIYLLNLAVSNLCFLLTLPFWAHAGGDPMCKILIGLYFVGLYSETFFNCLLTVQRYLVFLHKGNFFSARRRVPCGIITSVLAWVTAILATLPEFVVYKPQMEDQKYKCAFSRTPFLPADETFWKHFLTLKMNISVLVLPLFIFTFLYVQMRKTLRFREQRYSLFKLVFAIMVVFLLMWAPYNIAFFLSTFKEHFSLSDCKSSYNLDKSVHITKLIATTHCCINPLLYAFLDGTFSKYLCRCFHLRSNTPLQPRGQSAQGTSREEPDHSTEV
The note with it: 10µM, Favipiravir 100μM.

Assay [6] concerns the target T6, 348 GPCRs (Homo sapiens, UniProt O95136).
T6 construct: expressed in transfected cells; host or cells: HEK293A
The note with it: 10µM, Favipiravir 100μM.

The target of assay [7] is T7, 348 GPCRs (Homo sapiens, UniProt Q16602).
T7 construct: expressed in transfected cells; host or cells: HEK293A
The note with it: 10µM, Favipiravir 100μM.

In assay [8] the target is T8, 348 GPCRs (Homo sapiens, UniProt Q9P1P5).
T8 construct: expressed in transfected cells; host or cells: HEK293A
T8 sequence (Q9P1P5 1-351): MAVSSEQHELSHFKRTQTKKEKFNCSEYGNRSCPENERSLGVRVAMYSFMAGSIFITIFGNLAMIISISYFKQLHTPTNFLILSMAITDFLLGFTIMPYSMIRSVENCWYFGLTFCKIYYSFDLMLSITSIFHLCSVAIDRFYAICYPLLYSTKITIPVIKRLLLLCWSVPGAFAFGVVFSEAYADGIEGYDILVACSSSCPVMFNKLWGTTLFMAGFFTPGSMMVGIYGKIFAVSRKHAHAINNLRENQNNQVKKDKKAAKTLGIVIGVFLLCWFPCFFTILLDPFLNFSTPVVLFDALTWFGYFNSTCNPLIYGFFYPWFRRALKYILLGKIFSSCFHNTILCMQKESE
The note with it: 10µM, Favipiravir 100μM.

Assay [9] concerns the target T9, 348 GPCRs (Homo sapiens, UniProt Q8NFN8).
T9 construct: expressed in transfected cells; host or cells: HEK293A
T9 sequence (Q8NFN8 1-814): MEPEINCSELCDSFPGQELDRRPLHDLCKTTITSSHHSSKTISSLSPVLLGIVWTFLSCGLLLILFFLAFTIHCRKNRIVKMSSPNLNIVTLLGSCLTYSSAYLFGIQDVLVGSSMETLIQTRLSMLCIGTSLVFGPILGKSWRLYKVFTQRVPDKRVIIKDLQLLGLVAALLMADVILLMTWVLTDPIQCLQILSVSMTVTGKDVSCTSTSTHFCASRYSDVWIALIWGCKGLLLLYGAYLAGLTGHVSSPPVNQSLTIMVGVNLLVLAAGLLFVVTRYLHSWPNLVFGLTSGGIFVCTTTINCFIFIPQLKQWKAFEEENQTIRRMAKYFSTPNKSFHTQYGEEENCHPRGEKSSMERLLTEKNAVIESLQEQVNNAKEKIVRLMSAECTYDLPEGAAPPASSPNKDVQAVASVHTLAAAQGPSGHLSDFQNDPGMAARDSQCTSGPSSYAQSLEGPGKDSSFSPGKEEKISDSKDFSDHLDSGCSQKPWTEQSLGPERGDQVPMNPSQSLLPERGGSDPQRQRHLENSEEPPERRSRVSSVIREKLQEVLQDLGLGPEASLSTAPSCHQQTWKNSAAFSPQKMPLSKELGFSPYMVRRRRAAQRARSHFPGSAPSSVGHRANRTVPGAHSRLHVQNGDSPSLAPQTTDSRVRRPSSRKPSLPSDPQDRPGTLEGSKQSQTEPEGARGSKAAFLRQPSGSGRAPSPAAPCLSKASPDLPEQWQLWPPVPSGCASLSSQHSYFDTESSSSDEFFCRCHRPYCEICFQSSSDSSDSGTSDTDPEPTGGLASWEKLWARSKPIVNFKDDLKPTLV
The note with it: 10µM, Favipiravir 100μM.

The mark [10] stands for this setting: GPCR CXCR1 (chemokine (C-X-C motif) receptor 1), read-out: % GPCR activation compared to TPA.
Where [11] appears, read: GPR150 (G protein-coupled receptor 150), read-out: % GPCR activation compared to TPA.
Where [12] appears, read: GPR19 (G Protein-Coupled Receptor 19), read-out: % GPCR activation compared to TPA.
The mark [13] stands for this setting: GRM2 (glutamate metabotropic receptor 2), read-out: % GPCR activation compared to TPA.
[14] abbreviates: CCRL2 (chemokine (C-C motif) receptor-like 2), read-out: % GPCR activation compared to TPA.
Where [15] appears, read: S1PR2 (sphingosine-1-phosphate receptor 2), read-out: % GPCR activation compared to TPA.
[16] abbreviates: CALCRL (calcitonin receptor-like receptor), read-out: % GPCR activation compared to TPA.
Setting [17] is: TAAR2 (trace amine associated receptor 2), read-out: % GPCR activation compared to TPA.
Where [18] appears, read: GPR156 (G protein-coupled receptor 156), read-out: % GPCR activation compared to TPA.
Setting [19] is: read-out: % GPCR activation compared to TPA, GPCR CXCR1 (chemokine (C-X-C motif) receptor 1).
Where [20] appears, read: read-out: % GPCR activation compared to TPA, GPR150 (G protein-coupled receptor 150).
[21] abbreviates: read-out: % GPCR activation compared to TPA, GPR19 (G Protein-Coupled Receptor 19).
[22] abbreviates: read-out: % GPCR activation compared to TPA, GRM2 (glutamate metabotropic receptor 2).
[23] abbreviates: read-out: % GPCR activation compared to TPA, CCRL2 (chemokine (C-C motif) receptor-like 2).
Setting [24] is: read-out: % GPCR activation compared to TPA, S1PR2 (sphingosine-1-phosphate receptor 2).
The mark [25] stands for this setting: read-out: % GPCR activation compared to TPA, CALCRL (calcitonin receptor-like receptor).
[26] abbreviates: read-out: % GPCR activation compared to TPA, TAAR2 (trace amine associated receptor 2).
Where [27] appears, read: read-out: % GPCR activation compared to TPA, GPR156 (G protein-coupled receptor 156).

Read-outs that look alike come from different tables or passages of the source.

T2 sequence (Q8NGU9 whole entry): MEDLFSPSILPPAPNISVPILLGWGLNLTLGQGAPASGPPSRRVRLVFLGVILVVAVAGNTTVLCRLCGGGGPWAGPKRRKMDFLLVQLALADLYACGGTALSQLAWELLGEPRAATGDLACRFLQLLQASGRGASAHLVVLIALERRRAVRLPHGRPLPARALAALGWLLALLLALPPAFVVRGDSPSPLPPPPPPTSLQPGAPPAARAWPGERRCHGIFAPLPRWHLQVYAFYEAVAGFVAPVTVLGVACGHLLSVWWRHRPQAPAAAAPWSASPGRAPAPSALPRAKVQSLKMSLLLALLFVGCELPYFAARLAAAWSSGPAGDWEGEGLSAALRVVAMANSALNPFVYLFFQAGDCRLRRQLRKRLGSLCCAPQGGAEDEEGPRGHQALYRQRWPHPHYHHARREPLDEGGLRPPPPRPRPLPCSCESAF
T7 sequence (Q16602 23-461): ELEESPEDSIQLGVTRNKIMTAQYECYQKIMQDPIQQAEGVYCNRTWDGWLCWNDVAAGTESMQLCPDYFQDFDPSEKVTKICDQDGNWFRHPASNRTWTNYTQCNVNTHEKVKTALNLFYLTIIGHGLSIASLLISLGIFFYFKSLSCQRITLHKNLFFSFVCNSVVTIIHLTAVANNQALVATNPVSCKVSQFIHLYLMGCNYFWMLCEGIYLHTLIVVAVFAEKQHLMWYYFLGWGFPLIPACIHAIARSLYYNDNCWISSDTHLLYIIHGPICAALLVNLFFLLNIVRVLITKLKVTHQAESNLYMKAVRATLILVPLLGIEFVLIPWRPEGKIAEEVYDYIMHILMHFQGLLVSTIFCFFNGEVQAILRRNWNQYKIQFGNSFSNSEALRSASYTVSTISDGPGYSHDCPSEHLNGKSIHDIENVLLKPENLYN
T6 sequence (O95136 whole entry): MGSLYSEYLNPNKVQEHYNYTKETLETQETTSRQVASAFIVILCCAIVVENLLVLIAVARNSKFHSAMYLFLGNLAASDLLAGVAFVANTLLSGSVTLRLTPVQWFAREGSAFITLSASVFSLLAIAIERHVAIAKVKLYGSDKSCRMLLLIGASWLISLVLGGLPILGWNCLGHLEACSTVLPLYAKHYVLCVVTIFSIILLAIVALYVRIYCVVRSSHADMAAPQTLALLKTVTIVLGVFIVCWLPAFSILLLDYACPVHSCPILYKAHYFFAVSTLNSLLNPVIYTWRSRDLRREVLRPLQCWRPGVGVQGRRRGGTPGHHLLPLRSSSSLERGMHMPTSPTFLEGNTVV
T3 sequence (Q15760 whole entry): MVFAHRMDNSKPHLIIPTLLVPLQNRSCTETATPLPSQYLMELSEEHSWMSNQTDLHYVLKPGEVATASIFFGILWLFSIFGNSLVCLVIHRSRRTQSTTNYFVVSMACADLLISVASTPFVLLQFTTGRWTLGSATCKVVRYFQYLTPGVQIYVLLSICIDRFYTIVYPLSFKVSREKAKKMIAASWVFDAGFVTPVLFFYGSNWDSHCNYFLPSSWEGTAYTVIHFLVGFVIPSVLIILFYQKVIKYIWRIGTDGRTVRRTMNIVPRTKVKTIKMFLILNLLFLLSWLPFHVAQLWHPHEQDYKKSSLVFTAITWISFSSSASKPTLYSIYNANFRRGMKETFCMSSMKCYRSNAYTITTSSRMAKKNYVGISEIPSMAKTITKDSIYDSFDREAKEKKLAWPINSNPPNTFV
T4 sequence (Q14416 19-872): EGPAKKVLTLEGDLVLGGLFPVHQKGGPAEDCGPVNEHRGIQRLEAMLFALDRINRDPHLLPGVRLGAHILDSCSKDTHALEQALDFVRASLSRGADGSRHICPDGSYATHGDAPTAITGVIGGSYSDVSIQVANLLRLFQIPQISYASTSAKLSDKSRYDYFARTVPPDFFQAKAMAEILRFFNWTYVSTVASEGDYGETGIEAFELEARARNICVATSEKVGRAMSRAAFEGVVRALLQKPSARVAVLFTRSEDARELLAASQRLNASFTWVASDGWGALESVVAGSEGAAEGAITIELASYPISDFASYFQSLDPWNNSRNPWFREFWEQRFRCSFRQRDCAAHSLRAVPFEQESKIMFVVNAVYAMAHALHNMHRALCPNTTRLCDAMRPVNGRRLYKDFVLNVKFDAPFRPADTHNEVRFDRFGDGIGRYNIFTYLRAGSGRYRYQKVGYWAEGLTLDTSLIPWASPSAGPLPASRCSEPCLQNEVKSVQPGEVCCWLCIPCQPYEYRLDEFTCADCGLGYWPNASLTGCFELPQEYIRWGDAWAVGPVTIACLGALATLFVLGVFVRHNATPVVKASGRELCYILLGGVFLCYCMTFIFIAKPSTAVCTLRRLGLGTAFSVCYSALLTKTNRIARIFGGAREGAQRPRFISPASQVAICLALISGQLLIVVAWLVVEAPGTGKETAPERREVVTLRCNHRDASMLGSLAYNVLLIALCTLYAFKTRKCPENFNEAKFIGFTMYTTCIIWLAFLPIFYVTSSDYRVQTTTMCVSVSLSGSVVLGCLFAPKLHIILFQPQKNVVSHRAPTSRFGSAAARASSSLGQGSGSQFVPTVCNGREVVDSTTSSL

On to `CC(C)C(=O)OC[C@H]1O[C@@H](n2ccc(NO)nc2=O)[C@H](O)[C@@H]1O` [molnupiravir], for which the activation at 10 µM in [1] (setting [10]) was -2.06%; in assay [4] (setting [13]), 0.98%; in assay [5] (setting [14]), -0.522%; in assay [6] (setting [15]) it was -2.13%; in [9] (setting [18]), -4.86%. Also, the activation at 100 µM in assay [2] (setting [11]) is -6.13%; in assay [3] (setting [12]), -0.76%; in assay [7] (setting [16]), -2.18%; in [8] (setting [17]), -0.153%.
Consider `CC(C)OC(=O)[C@H](C)N[P@](=O)(OC[C@H]1O[C@@H](n2ccc(=O)[nH]c2=O)[C@](C)(F)[C@@H]1O)Oc1ccccc1` [sofosbuvir], for which the activation at 10 µM was -0.0928% in assay [1] (setting [19]); -2.27% in assay [4] (setting [22]); 1.66% in [5] (setting [23]); 0.199% in assay [6] (setting [24]); -4.51% in assay [9] (setting [27]). Further, the activation at 100 µM in [2] (setting [20]) was 0.239%; in assay [3] (setting [21]), -1.2%; in assay [7] (setting [25]), -3.04%; in assay [8] (setting [26]) it was -0.403%.
Turning to `N#C[C@@]1(c2ccc3c(N)ncnn23)O[C@H](CO)[C@@H](O)[C@H]1O` [GS441524], the activation at 10 µM in [1] (setting [10]) was -1.09%; in assay [4] (setting [13]) it was 0.673%; in [5] (setting [14]) it was 2.25%; in assay [6] (setting [15]) it was -1.37%; in assay [9] (setting [18]), 1.38%. Moreover, the activation at 100 µM in assay [2] (setting [11]) was 0.708%; in assay [3] (setting [12]), -0.932%; in assay [7] (setting [16]), 0.376%; in [8] (setting [17]) it was -1.42%.
As to `NC(=O)c1nc(F)cnc1O` [favipiravir, 6-fluoro-3-hydroxy-2-pyrazinecarboxamide], the activation at 100 µM in [1] (GPCR CXCR1 (chemokine (C-X-C motif) receptor 1), 100μM, read-out: % GPCR activation compared to TPA) was -1.26%; in assay [2] (setting [11]), -0.462%; in [3] (setting [12]) it was -0.654%; in assay [7] (setting [16]) it was -7.08%; in assay [8] (setting [17]), 0.753%. Moreover, the activation at 10 µM in assay [4] (setting [13]) was -0.721%; in [5] (setting [14]), 0.0461%; in assay [6] (setting [15]), -1.8%; in assay [9] (setting [18]) it was 2.77%.
Regarding `CCC(CC)COC(=O)[C@H](C)N[P@](=O)(OC[C@H]1O[C@@](C#N)(c2ccc3c(N)ncnn23)[C@H](O)[C@@H]1O)Oc1ccccc1` [remdesivir], the activation at 10 µM is -0.838% in assay [1] (setting [19]); 1.1% in assay [4] (setting [22]); 0.0536% in assay [5] (setting [23]); -3.06% in assay [6] (setting [24]); 4.05% in assay [9] (setting [27]). Moreover, the activation at 100 µM in [2] (setting [20]) is 6.96%; in assay [3] (setting [21]), -1.37%; in [7] (setting [25]) it was 4.11%; in assay [8] (setting [26]), 1.05%.

The values are drawn from article PMC10175918 (Communications Biology, 2023).
